According to ChEMBL document CHEMBL1201862, “PubChem BioAssay data set” (2004):
Active and inactive are the calls of the source. Cut-off read from the data, not from the text of the source, for most assays here: actives have a measured EC50 and inactives only a lower limit.

How the values were obtained:
[1] = cytotoxicity in HEK-293T cells, dose response, cytotoxicity control for TCR NF-kB inhibitor project, luminescence, T-cell screen hits (AID 489026); format: functional, cell-based;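 note: cells exposed to compound about 14 hours before the viability readout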
[2] = target: T1, Corticotropin-releasing factor receptor 2/Corticotropin-releasing factor-binding protein (Homo sapiens, UniProt P24387+Q13324); experiment: Dose Response confirmation of uHTS hits for small molecule antagonists of the CRF-binding protein and CRF-R2 receptor complex.; format: functional; settings: read-out: IC50_Mean
T1 sequence (Q13324 whole entry): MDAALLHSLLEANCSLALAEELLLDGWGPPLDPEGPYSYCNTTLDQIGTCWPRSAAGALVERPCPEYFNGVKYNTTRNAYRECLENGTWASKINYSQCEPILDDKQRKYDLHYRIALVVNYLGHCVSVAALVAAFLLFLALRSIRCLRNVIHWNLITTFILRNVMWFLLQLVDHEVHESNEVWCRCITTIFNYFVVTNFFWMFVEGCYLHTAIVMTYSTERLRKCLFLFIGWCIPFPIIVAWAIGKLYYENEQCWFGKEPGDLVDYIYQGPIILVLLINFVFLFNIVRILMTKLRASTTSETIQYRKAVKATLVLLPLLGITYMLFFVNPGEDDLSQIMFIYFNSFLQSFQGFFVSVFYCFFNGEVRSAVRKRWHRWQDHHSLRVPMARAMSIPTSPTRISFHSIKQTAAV
T1 sequence (P24387 whole entry): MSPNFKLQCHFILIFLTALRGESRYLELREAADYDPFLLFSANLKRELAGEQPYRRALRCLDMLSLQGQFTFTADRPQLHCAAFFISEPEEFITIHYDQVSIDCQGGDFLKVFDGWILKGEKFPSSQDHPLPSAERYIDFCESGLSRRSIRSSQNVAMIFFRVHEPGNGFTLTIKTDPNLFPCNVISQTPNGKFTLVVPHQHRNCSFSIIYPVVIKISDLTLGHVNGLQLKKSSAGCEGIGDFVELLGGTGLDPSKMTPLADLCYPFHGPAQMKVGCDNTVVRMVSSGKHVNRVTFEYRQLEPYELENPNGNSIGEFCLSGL

[3] = target: T2, Rac GTPase-activating protein 1 (Homo sapiens, UniProt Q9H0H5); experiment: MgcRacGAP GTPase-activating activity inhibitors, confirmation, biochemical, ADP Hunter fluorescence, primary and confirmatory (AID 624330); format: functional
T2 sequence (Q9H0H5 whole entry): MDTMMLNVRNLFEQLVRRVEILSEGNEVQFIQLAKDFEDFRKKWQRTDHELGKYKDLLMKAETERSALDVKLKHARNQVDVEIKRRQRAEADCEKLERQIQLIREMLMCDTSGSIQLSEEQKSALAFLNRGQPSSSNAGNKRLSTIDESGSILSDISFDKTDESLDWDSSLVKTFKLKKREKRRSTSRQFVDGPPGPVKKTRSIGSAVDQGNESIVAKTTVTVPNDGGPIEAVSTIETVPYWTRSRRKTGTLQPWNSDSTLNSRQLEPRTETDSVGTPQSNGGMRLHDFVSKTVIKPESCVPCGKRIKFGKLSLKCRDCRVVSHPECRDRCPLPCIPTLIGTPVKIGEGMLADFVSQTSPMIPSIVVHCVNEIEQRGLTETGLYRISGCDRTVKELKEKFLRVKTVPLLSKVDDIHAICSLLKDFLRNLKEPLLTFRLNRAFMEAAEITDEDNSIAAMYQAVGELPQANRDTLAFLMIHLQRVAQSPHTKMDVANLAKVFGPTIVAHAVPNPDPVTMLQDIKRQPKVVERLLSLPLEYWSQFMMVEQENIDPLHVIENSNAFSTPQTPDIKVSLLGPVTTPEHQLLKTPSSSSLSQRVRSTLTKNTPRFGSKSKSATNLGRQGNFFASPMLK

[4] = target: T1, Corticotropin-releasing factor receptor 2/Corticotropin-releasing factor-binding protein; experiment: activators of CRF receptor 2 with binding protein – uHTS hits, confirmation (AID 602473); format: functional; settings: read-out: EC50_Mean
Fatty acid synthase [5] = target: T3, Fatty acid synthase (Homo sapiens, UniProt P49327); experiment: FAS thioesterase domain inhibitors, dose response, biochemical, kinetic fluorescence intensity (AID 624326); format: functional;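 note: rate of fluorescence rise from hydrolysis of a fluorogenic O-methyl fluorescein ester substrate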
T3 sequence (P49327 whole entry, the tested form may be a part): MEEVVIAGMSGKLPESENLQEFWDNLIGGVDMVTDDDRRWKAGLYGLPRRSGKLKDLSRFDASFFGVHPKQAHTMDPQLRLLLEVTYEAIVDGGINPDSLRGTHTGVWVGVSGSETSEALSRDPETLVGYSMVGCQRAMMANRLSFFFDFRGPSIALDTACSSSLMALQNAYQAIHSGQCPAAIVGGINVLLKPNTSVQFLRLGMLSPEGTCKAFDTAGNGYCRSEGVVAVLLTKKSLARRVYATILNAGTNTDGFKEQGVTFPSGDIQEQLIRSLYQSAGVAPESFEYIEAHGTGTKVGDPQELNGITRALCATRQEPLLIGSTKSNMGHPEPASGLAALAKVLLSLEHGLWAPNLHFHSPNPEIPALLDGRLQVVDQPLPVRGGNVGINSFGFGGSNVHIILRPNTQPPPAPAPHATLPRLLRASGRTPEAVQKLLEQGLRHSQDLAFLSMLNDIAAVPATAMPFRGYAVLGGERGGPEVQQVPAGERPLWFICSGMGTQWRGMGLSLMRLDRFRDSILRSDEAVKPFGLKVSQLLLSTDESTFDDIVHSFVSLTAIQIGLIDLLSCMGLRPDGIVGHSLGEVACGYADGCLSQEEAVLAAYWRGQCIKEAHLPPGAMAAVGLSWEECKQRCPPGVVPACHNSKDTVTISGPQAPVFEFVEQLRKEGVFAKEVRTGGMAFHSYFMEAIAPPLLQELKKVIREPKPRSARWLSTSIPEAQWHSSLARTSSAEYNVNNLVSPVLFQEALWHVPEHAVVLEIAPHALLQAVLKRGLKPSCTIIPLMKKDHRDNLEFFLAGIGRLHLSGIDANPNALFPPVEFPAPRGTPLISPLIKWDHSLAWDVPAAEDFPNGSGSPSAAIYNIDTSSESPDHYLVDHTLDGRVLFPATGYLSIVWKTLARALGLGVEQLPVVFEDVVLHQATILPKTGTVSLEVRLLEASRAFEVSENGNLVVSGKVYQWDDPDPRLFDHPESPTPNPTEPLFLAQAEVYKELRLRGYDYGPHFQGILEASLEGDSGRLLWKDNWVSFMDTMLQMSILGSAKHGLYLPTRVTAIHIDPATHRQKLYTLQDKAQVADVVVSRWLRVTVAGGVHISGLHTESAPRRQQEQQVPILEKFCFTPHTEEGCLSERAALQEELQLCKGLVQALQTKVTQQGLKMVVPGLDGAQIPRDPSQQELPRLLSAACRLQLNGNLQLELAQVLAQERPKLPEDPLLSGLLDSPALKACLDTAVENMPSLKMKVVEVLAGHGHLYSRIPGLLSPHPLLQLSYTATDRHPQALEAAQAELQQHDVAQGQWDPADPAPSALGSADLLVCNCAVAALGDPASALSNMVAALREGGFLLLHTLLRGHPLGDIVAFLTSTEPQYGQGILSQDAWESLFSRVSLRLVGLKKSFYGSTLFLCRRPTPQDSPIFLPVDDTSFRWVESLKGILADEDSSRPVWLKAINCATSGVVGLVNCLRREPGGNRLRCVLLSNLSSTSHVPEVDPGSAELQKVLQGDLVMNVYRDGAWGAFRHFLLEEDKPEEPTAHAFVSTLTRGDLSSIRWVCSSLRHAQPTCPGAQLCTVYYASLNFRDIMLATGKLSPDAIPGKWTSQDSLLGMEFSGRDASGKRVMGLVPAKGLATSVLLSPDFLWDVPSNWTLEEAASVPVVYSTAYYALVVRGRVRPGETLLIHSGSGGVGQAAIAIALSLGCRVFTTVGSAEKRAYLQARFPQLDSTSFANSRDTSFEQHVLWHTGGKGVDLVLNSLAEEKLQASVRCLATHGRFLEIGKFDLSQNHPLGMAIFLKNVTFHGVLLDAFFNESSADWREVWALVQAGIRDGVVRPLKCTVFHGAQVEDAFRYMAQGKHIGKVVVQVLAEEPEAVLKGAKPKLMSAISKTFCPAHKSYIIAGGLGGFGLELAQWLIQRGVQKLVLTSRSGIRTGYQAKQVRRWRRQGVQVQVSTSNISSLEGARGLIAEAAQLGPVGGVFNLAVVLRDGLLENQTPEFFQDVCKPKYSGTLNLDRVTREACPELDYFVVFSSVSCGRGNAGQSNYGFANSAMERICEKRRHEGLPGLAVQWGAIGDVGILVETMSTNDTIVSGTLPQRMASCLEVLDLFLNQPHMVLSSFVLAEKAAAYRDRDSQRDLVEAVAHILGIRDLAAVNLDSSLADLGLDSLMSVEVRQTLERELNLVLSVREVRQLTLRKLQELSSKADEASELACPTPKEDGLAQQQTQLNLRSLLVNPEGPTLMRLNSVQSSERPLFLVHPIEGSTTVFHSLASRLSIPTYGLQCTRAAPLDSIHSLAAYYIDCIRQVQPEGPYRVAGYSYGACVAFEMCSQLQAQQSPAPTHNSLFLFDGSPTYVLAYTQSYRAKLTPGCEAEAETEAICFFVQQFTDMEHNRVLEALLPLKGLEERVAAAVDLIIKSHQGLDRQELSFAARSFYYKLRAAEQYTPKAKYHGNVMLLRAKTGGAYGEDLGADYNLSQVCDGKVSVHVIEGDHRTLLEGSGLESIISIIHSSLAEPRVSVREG

Fatty acid synthase [6] = target: T3, Fatty acid synthase; experiment: FAS thioesterase domain inhibitors, dose response, biochemical, endpoint fluorescence intensity, uHTS hits (AID 624327); format: functional;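 note: fluorescence from hydrolysis of an O-methyl fluorescein acyl ester substrate by the enzyme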
cells [7] = format: functional, cell-based
cells [8] = format: functional, cell-based; remark: listed apart in the source
Streptococcus = experiment: Group A Streptococcus viability loss, dose response, counter-screen for streptokinase expression inhibitor project, luminescence, BacTiterGlo (AID 1915); format: functional, organism-based;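 note: potency for reduction of bacterial viability or growth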
[9] = test system: Streptococcus sp. 'group A'; experiment: growth inhibition of control SK(-) GAS strain, dose response, counter-screen for streptokinase expression inhibitor project, luminescence, kanamycin, BacTiterGlo, confirmation (AID 1900); format: functional, organism-based
INS1 = experiment: beta cell apoptosis inhibitors, cytokine rescue, dose response, luminescence, retest (AID 449756); format: functional, cell-based; settings: Rattus norvegicus;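 note: cell death triggered by IL-1 beta plus TNF-alpha plus IFN-gamma mixture; protective hits raise ATP signal compared with cytokine alone wells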
[10] = cytotoxicity toward DRD oncogenic fibroblasts, dose response, cell-based, non-viral oncogenic, luminescence (AID 1934); format: functional; settings: Homo sapiens
BJ [11] = experiment: cytotoxicity toward BJ-TERT fibroblasts, dose response, cell-based, RAS-independent, luminescence (AID 1933); format: functional; settings: Homo sapiens
BJ [12] = experiment: cytotoxicity toward BJ-TERT-LT-ST fibroblasts, dose response, cell-based, RAS-independent, luminescence (AID 1935); format: functional; settings: Homo sapiens;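 note: BJ fibroblasts immortalized with TERT plus LT and ST oncogenes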
BJ [13] = experiment: cells; format: functional, cell-based; settings: Homo sapiens
[14] = inhibitors of firefly luciferase expression or activity, dose response, H4 neuroglioma cells, luminescence (AID 1990); format: functional, cell-based
[15] = Luminescence Cell-Based Dose Response HTS to Identify Inhibitors of 5'UTR Stem-Loop Driven Prion Protein mRNA Translation in H4 Neuroglioblastoma Cells. [Related pubchem assays: 1827 (Project Summary), 1813 (Primary HTS)]; format: functional
[16] = NIH-3T3 fibroblast cytotoxicity, dose response, cytotoxicity control, cell-based, fluorescence, Alamar Blue, secondary assay (AID 2327); format: functional;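 note: NIH-3T3 mouse fibroblasts cultured with fluconazole at 8 µg/mL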
[17] = C. albicans growth with fluconazole, confirmation, fluorescence, retest (AID 2467); format: functional, cell-based
[18] = inhibitors of SNCA 5'UTR-driven reporter translation, confirmation, H4 neuroglioma cells, luminescence (AID 1988); format: functional, cell-based
Cytochrome P450 3A4 = Cytochrome P450 3A4 (Homo sapiens, UniProt P08684);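 note: CYP3A4 tested as one member of a cytochrome P450 panel screen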
Sequence of Cytochrome P450 3A4 (P08684 whole entry): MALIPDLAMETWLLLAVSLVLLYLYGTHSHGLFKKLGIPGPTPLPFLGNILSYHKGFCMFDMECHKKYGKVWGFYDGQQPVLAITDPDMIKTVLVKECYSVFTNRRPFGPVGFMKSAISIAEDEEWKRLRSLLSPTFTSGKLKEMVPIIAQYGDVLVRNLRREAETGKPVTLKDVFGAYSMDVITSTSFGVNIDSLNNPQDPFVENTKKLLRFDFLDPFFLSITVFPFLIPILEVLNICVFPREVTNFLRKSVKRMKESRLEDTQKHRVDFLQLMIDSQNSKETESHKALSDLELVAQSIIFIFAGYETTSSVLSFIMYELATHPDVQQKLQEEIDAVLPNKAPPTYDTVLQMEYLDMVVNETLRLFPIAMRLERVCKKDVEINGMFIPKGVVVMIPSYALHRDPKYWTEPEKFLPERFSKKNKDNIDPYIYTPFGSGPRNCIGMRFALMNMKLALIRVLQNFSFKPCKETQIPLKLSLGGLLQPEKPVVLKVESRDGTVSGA

Cytochrome P450 1A2 = target: T4, Cytochrome P450 1A2 (Homo sapiens, UniProt P05177);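 note: PubChem cytochrome P450 panel assay, CYP1A2 panel member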
T4 sequence (P05177 whole entry): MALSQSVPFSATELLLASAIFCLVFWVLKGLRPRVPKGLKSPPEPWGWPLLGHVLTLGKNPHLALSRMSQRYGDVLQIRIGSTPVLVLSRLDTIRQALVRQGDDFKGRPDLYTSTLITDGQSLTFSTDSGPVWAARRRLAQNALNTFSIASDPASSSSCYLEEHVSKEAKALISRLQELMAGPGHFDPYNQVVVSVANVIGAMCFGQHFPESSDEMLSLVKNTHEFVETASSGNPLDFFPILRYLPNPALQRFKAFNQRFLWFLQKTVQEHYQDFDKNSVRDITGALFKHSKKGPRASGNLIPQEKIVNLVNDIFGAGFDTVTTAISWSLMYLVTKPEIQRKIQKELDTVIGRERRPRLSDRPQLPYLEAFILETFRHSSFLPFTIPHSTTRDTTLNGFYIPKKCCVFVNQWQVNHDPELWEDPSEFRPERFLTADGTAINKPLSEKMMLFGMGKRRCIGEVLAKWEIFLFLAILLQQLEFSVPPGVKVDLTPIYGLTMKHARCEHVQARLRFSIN

Cytochrome P450 2D6 = Cytochrome P450 2D6 (Homo sapiens, UniProt P10635);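 note: CYP2D6 member of a cytochrome P450 panel assay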
Sequence of Cytochrome P450 2D6 (P10635 whole entry): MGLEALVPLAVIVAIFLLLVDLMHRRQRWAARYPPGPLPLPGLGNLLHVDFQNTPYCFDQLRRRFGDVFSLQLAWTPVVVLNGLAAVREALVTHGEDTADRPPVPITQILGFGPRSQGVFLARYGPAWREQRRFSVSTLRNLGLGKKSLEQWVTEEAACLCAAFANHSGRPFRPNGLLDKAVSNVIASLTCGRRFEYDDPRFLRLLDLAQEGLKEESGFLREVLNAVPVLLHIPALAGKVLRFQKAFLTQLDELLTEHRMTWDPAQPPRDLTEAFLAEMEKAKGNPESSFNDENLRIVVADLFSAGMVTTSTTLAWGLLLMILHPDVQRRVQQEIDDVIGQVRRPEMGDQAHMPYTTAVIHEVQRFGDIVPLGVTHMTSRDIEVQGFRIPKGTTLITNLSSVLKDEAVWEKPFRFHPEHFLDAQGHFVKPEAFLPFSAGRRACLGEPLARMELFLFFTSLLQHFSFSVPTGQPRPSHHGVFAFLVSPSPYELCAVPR

[19] = Luminescence Cell-Based Dose Retest to Confirm Inhibitors of Cancer Stem Cells. [Related pubchem assays (depositor defined):AID2717, AID2721]; format: functional; settings: Homo sapiens
[20] = target: T5, Heat shock factor protein 1 (Mus musculus, UniProt P38532); experiment: HSF1 potentiators in luciferase reporter cells, confirmation, cell-based, NIH3T3, luminescence, dose retest (AID 435004); format: functional;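 note: stress induced by proteasome inhibitor MG132 added 30 min after compound; luciferase reporter driven by HSF1 response element in NIH3T3 cells; actives raise luminescence as potentiators of the MG132 stress response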
T5 sequence (P38532 whole entry): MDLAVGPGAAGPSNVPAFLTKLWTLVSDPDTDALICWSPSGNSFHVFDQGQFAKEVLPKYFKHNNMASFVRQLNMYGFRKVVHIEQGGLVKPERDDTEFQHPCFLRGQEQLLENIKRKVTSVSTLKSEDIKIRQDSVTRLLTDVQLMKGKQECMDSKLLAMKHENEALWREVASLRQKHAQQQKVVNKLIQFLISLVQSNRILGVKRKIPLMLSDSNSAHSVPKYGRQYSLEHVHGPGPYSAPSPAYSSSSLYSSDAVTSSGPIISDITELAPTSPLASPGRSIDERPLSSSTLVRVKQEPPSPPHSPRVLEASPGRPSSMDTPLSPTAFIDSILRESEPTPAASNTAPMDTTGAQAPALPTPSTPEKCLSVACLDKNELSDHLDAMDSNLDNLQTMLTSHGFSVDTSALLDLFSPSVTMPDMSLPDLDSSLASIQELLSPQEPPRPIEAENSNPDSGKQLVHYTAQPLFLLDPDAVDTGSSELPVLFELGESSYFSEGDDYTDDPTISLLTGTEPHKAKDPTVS

**Q.** With `O=C(NCCOc1ccccc1)c1cc([N+](=O)[O-])ccc1N1CCOCC1` as the compound, how does the IC50 [1] read?
**A.** > 80 µM (inactive)

**Q.** Which results are given for `Cc1ccc2c(c1)C(C)CC(C)(C)N2C(=O)CN1CCN(C)CC1` (stereo unspecified)?
**A.** IC50 [2]: > 47.1 µM (inactive); IC50 [3]: 73.3 µM (active); EC50 [4]: > 53 µM (inactive)

**Q.** What does the source list for `CC(C)(C)c1cc(Br)c(O)c(N=Nc2ccc(S(=O)(=O)N3CCOCC3)cc2)c1`?
**A.** IC50 (Fatty acid synthase [5]): 2.66 µM (active); IC50 (Fatty acid synthase [6]): 3.8 µM (active)

**Q.** What does the source list for `c1ccc(-c2nnc3sc(-c4cc5ccccc5o4)nn23)cc1`?
**A.** EC50 (cells [7]): > 350 µM (not active); EC50 (cells [8]): > 350 µM (not active)

**Q.** Which results are given for `O=C(N/N=C/c1ccccc1O)c1ccc2c(c1)OCO2`?
**A.** EC50 (Streptococcus): 4.46 µM (active); EC50 [9]: 4.24 µM (active); EC50 (cells [7]): 12.6 µM (active); EC50 (cells [8]): 101 µM (active); AC50 (INS1): 2.58 µM (active)

**Q.** For `COc1ccc(C(=O)N/C(=C\c2cn(S(=O)(=O)N(C)C)c3ccccc23)C(=O)N2CCCC2)cc1`, which IC50 (Fatty acid synthase [5]) is on record?
**A.** 4.3 µM (active)

**Q.** What about the IC50 (Fatty acid synthase [6]) of the same compound?
**A.** 1.47 µM (active)

**Q.** Which EC50 [10] does the source give for `CCOC(=O)C(C)Oc1cccc2c(=O)n(CC(=O)NCc3ccccc3)ccc12` (stereo unspecified) here?
**A.** 0.645 µM (active)

**Q.** What about the IC50 [1] of the same compound?
**A.** > 80 µM (inactive)

**Q.** What about the EC50 (BJ [11]) of the same compound?
**A.** 0.772 µM (active)

**Q.** What about the EC50 (BJ [12]) of the same compound?
**A.** 0.785 µM (active)

**Q.** What about the EC50 (BJ [13]) of the same compound?
**A.** 7.35 µM (active)

**Q.** Which results are given for `C/C(=N\NC(=O)c1cc(-c2cccnc2)nc2ccccc12)c1ccc(O)cc1O`?
**A.** EC50 [14]: 5.99 µM (active); EC50 [15]: 9.7 µM (active); EC50 [16]: 4.94 µM (active); EC50 (cells [7]): > 350 µM (not active); EC50 [17]: > 38 µM (not active); EC50 (cells [8]): 10.9 µM (active); EC50 [18]: 8.88 µM (active); AC50 (INS1): 0.661 µM (active)

**Q.** Which results are given for `CC(C)c1ccc(/C=N/NC(=O)CN(c2cccc(Cl)c2Cl)S(C)(=O)=O)cc1`?
**A.** IC50 (Fatty acid synthase [5]): 7.36 µM (active); AC50 (Cytochrome P450 3A4): 28.2 µM (inconclusive); AC50 (Cytochrome P450 1A2): 25.1 µM (inconclusive); IC50 (Fatty acid synthase [6]): 10.4 µM (active); AC50 (Cytochrome P450 2D6): 28.2 µM (inconclusive)

**Q.** Which EC50 [14] does the source give for `CCCCSc1nc(C)cc(SCC(=O)N/N=C/c2cccc(OC)c2O)n1` here?
**A.** 11.6 µM (active)

**Q.** What about the EC50 [15] of the same compound?
**A.** 9.62 µM (active)

**Q.** And the EC50 (Streptococcus)?
**A.** 2.61 µM (active)

**Q.** What about the AC50 [19] of the same compound?
**A.** 7.03 µM (active)

**Q.** What about the EC50 [9] of the same compound?
**A.** 2.31 µM (active)

**Q.** What about the EC50 (cells [7]) of the same compound?
**A.** > 350 µM (not active)

**Q.** What about the EC50 [20] of the same compound?
**A.** > 260 µM (inactive)

**Q.** And the EC50 (cells [8])?
**A.** 15 µM (active)

**Q.** What about the EC50 [18] of the same compound?
**A.** 10.2 µM (active)

**Q.** For `COc1cc(O)c2c(c1)COC2=O`, which IC50 [2] is on record?
**A.** > 47.1 µM (inactive)

**Q.** And the EC50 [4]?
**A.** > 53 µM (inactive)

**Q.** What does the source list for `CCCCCN(CCCCC)C(=O)C(CCC(=O)O)NC(=O)c1ccc(Cl)c(Cl)c1` (stereo unspecified) [LORGLUMIDE SODIUM]?
**A.** IC50 (Fatty acid synthase [5]): 5.31 µM (active); IC50 (Fatty acid synthase [6]): 5.09 µM (active)
